Molecules are shown by their SMILES.

The first experiment deals with T1, human Cot/Tpl2 kinase (Homo sapiens, UniProt P41279).
T1 construct: human Cot/Tpl2 kinase construct encoding residues 30-398; 6His (N); made in house; host or cells: Sf9 insect cells, baculovirus system (BD Biosciences)
T1 sequence (P41279 30-398): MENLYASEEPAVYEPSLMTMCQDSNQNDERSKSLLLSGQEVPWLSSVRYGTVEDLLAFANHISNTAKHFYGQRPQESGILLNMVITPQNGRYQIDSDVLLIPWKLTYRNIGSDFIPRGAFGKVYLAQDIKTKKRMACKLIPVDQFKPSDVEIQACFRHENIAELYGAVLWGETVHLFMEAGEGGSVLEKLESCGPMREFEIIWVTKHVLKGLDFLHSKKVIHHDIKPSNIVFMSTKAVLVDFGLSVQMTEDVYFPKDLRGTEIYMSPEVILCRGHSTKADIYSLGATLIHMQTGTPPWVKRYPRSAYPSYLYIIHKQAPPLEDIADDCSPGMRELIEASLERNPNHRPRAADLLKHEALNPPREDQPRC
In words: Tpl2/Cot kinase assay: GST-MEK1 phosphorylation detected by ELISA (DELFIA Eu). It counts as biochemical. The settings on record: Table 2; Tpl2/Cot kinase, GST-MEK1 substrate, 50 uM ATP. A digest of the protocol: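 His-tagged human Tpl2 from Sf9 cells, Ni-affinity and size-exclusion purified (monomer). 0.4 nM Tpl2 with 35 nM GST-MEK1, 50 uM ATP, MOPS pH 7.2, 1% DMSO, 1 h at 30° C; EDTA stop. MEK1 Ser217/221 phosphorylation detected by anti-phospho-MEK1 and Eu-labelled secondary ELISA; IC50 fitted.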
As usually defined, the IC50 is the point on the concentration scale where inhibition reaches its midpoint. A low value points to higher potency. As for `CC(C)n1cnc(CNc2cc(Br)c3ncc(C#N)c(Nc4ccc(F)c(Cl)c4)c3c2)c1` [Example 633], the half-inhibitory concentration (IC50) is > 3 µM.
Turning to `CC(=O)Nc1ccc(-n2cc(CNc3cc(Cl)c4ncc(C#N)c(Nc5ccc(F)c(Cl)c5)c4c3)nn2)cc1` [Example 634], the IC50 is 0.035 µM.
For `N#Cc1cnc2c(Cl)cc(NC3CCCC3n3cc(CCO)nn3)cc2c1Nc1ccc(F)c(Cl)c1` (stereo not drawn) [Example 635], it took 0.067 µM to reach half-maximal inhibition (IC50).
`CN(C)Cc1cn(C2CCCC2Nc2cc(Cl)c3ncc(C#N)c(Nc4ccc(F)c(Cl)c4)c3c2)nn1` (stereo not drawn) [Example 636]: the IC50 is > 3 µM.
Same read-out and setting: with `N#Cc1cnc2c(Cl)cc(NCC(CO)c3ccncc3)cc2c1Nc1ccc(F)c(Cl)c1` (stereo not drawn) [Example 637] the figure was > 3 µM; with `N#Cc1cnc2c(Br)cc(NCc3cn(COCc4ccccc4)nn3)cc2c1Nc1ccc(F)c(Cl)c1` [Example 638], > 3 µM; with `CC(CNc1cc(Cl)c2ncc(C#N)c(Nc3ccc(F)c(Cl)c3)c2c1)c1ccncc1` (stereo not drawn) [Example 639], 0.2 µM.
On the same count and under the same terms, with `CCN(C[C@@H]1CCCN1)c1cc(Cl)c2ncc(C#N)c(Nc3ccc(F)c(Cl)c3)c2c1` [Example 640] the figure was > 3 µM.

The experiment is the same for the next values; noted with them: Tpl2/Cot kinase, GST-MEK1 substrate, 50 uM ATP.
As for `CCN(C[C@@H]1CCCN1C(C)=O)c1cc(Cl)c2ncc(C#N)c(Nc3ccc(F)c(Cl)c3)c2c1` [Example 644], the IC50 was > 3 µM.
Same read-out and setting: with `CN(C)CC1CCCCC1Nc1cc(Cl)c2ncc(C#N)c(Nc3ccc(F)c(Cl)c3)c2c1` (stereo not drawn) [Example 646] the figure was > 3 µM.
In turn, `CN1CCCC1CCNC(=O)Cn1cc(CNc2cc(Cl)c3ncc(C#N)c(Nc4ccc(F)c(Cl)c4)c3c2)nn1` (stereo not drawn) [Example 651] displayed a 50% inhibitory concentration (IC50) of 0.0069 µM.
The same measure, in the same setting: with `CC(C)(C)OC(=O)N1CCC(Nc2ccc3ncc(C#N)c(Nc4ccc(F)c(Cl)c4)c3c2)CC1` [Example 656] the figure was > 40 µM.
On the same count and under the same terms, with `N#Cc1cnc2ccc(NC3CCN(Cc4ccccc4)CC3)cc2c1Nc1ccc(F)c(Cl)c1` [Example 657] the figure was 1.7 µM; with `CC(C)N1CCC(Nc2ccc3ncc(C#N)c(Nc4ccc(F)c(Cl)c4)c3c2)CC1` [Example 658], 25.5 µM; with `CCN1CCC(Nc2ccc3ncc(C#N)c(Nc4ccc(F)c(Cl)c4)c3c2)C(C)C1` (stereo not drawn) [Example 659], > 40 µM.
`CC(=O)Nc1cc(Br)c2ncc(C#N)c(Nc3ccc(F)c(Cl)c3)c2c1` [Example 660]: the midpoint of inhibition, the IC50, lay at 4.7 µM.
Still for that read-out and setting: under `N#Cc1cnc2c(Br)cc(NCc3cn(C45CC6CC(CC(C6)C4)C5)nn3)cc2c1Nc1ccc(F)c(Cl)c1` [Example 661] stands 1.7 µM; under `CN(C)CCCn1cc(CNc2cc(Br)c3ncc(C#N)c(Nc4ccc(F)c(Cl)c4)c3c2)nn1` [Example 662], 0.02 µM; under `CN(C)CCn1cc(CNc2cc(Br)c3ncc(C#N)c(Nc4ccc(F)c(Cl)c4)c3c2)nn1` [Example 663], 0.024 µM.
Still for that read-out and setting: under `Cn1cnc(CNc2cc(Br)c3ncc(C#N)c(Nc4ccc(F)c(Cl)c4)c3c2)n1` [Example 664] stands 0.2 µM; under `N#Cc1cnc2c(Cl)cc(NCc3nc[nH]n3)cc2c1Nc1ccc(F)c(Cl)c1` [Example 666], 0.1 µM; under `N#Cc1cnc2c(Br)cc(NCc3nc[nH]n3)cc2c1Nc1ccc(F)c(Cl)c1` [Example 667], 0.11 µM.
Molecule `N#Cc1cnc2c(Br)cc(NCc3cncn3CCN3CCOCC3)cc2c1Nc1ccc(F)c(Cl)c1` [Example 668] had an IC50 of 0.16 µM.
Still for that read-out and setting: with `N#Cc1cnc2c(Br)cc(NCc3cn(CCN4CCOCC4)cn3)cc2c1Nc1ccc(F)c(Cl)c1` [Example 669] the figure was 0.041 µM; with `N#Cc1cnc2c(Cl)cc(NCc3cn(CCN4CCOCC4)cn3)cc2c1Nc1ccc(F)c(Cl)c1` [Example 670], 0.033 µM; with `N#Cc1cnc2c(Cl)cc(NCc3cncn3CCN3CCOCC3)cc2c1Nc1ccc(F)c(Cl)c1` [Example 671], 0.062 µM.
On the same count and under the same terms, with `N#Cc1cnc2c(Br)cc(NCc3cn(CC(F)(F)F)nn3)cc2c1Nc1ccc(F)c(Cl)c1` [Example 673] the figure was 0.1 µM.
Still for that read-out and setting: with `CC(C)(C)OC(=O)N1CCC(CCn2cc(CNc3cc(Cl)c4ncc(C#N)c(Nc5ccc(F)c(Cl)c5)c4c3)nn2)CC1` [Example 674] the figure was 0.075 µM; with `CC(C)(C)OC(=O)N1CCC(CCn2cc(CNc3cc(Br)c4ncc(C#N)c(Nc5ccc(F)c(Cl)c5)c4c3)nn2)CC1` [Example 675], 0.13 µM.
On to `CN(CCn1cc(CNc2cc(Cl)c3ncc(C#N)c(Nc4ccc(F)c(Cl)c4)c3c2)nn1)C(=O)OC(C)(C)C` [Example 676], for which the IC50 amounted to 0.048 µM.
On the same count and under the same terms, under `CN(CCn1cc(CN(Cc2cn(CCN(C)C(=O)OC(C)(C)C)nn2)c2cc(Br)c3ncc(C#N)c(Nc4ccc(F)c(Cl)c4)c3c2)nn1)C(=O)OC(C)(C)C` [Example 677] stands 4.7 µM; under `CN(CCn1cc(CNc2cc(Br)c3ncc(C#N)c(Nc4ccc(F)c(Cl)c4)c3c2)nn1)C(=O)OC(C)(C)C` [Example 678], 0.067 µM; under `CN1CCC(Cn2cc(CN(C)c3cc(Br)c4ncc(C#N)c(Nc5ccc(F)c(Cl)c5)c4c3)nn2)CC1` [Example 679], 0.29 µM.
On the same count and under the same terms, with `CN1CCC(Cn2cc(CNc3cc(Br)c4ncc(C#N)c(Nc5ccc(F)c(Cl)c5)c4c3)nn2)CC1` [Example 680] the figure was 0.012 µM; with `CN1CCC(n2cc(CN(C)c3cc(Br)c4ncc(C#N)c(Nc5ccc(F)c(Cl)c5)c4c3)nn2)CC1` [Example 681], 0.022 µM; with `CSCCn1cc(CNc2cc(Br)c3ncc(C#N)c(Nc4ccc(F)c(Cl)c4)c3c2)nn1` [Example 682], 0.082 µM.
Same read-out and setting: under `COCCCc1nc[nH]c1CNc1cc(Br)c2ncc(C#N)c(Nc3ccc(F)c(Cl)c3)c2c1` [Example 683] stands 0.062 µM.
Take `CNCCn1cc(CNc2cc(Br)c3ncc(C#N)c(Nc4ccc(F)c(Cl)c4)c3c2)nn1` [Example 684]: the IC50 was determined as 0.038 µM.
Turning to `CNCCn1cc(CNc2cc(Cl)c3ncc(C#N)c(Nc4ccc(F)c(Cl)c4)c3c2)nn1` [Example 685], it took 0.029 µM to reach half-maximal inhibition (IC50).
In the case of `N#Cc1cnc2c(Br)cc(NCc3cn(CCO)nn3)cc2c1Nc1ccc(F)c(Cl)c1` [Example 686], the IC50 is 0.028 µM.
Still for that read-out and setting: under `N#Cc1cnc2c(Br)cc(NCc3cn(CCC4CCNCC4)nn3)cc2c1Nc1ccc(F)c(Cl)c1` [Example 691] stands 0.09 µM; under `N#Cc1cnc2c(Cl)cc(NCc3cn(CCC4CCNCC4)nn3)cc2c1Nc1ccc(F)c(Cl)c1` [Example 692], 0.13 µM.
On the same count and under the same terms, with `CC(C)(C)OC(=O)N1CCC(CCn2cc(CN(Cc3cn(CCC4CCN(C(=O)OC(C)(C)C)CC4)nn3)c3cc(Br)c4ncc(C#N)c(Nc5ccc(F)c(Cl)c5)c4c3)nn2)CC1` [Example 693] the figure was > 3 µM.
On the same count and under the same terms, under `CS(=O)(=O)CCn1cc(CNc2cc(Br)c3ncc(C#N)c(Nc4ccc(F)c(Cl)c4)c3c2)nn1` [Example 694] stands 0.091 µM; under `CN1CCC(CCn2cc(CNc3cc(Br)c4ncc(C#N)c(Nc5ccc(F)c(Cl)c5)c4c3)nn2)CC1` [Example 695], 0.044 µM.
`CN1CCC(CCn2cc(CNc3cc(Cl)c4ncc(C#N)c(Nc5ccc(F)c(Cl)c5)c4c3)nn2)CC1` [Example 696] showed an IC50 of 0.0017 µM.
The molecule `N#Cc1cnc2c(Br)cc(NCc3cn(CCCO)nn3)cc2c1Nc1ccc(F)c(Cl)c1` [Example 697] returned an IC50 of 0.018 µM.
As for `COCCn1cc(CNc2cc(Br)c3ncc(C#N)c(Nc4ccc(F)c(Cl)c4)c3c2)nn1` [Example 698], the IC50 was 0.018 µM.
On to `N#Cc1cnc2c(Br)cc(NCc3cn(CCS(=O)(=O)C4CCCC4)nn3)cc2c1Nc1ccc(F)c(Cl)c1` [Example 699], for which it took 0.053 µM to reach half-maximal inhibition (IC50).
Still for that read-out and setting: under `N#Cc1cnc2c(Br)cc(NCc3cnc4cnccn34)cc2c1Nc1ccc(F)c(Cl)c1` [Example 700] stands 0.11 µM; under `N#Cc1cnc2c(Br)cc(NCc3cnc4ccccn34)cc2c1Nc1ccc(F)c(Cl)c1` [Example 701], 0.28 µM; under `CS(=O)(=O)CCn1cnc(CNc2cc(Br)c3ncc(C#N)c(Nc4ccc(F)c(Cl)c4)c3c2)c1` [Example 702], 0.043 µM.
As to `C[S+]([O-])Cn1cc(CNc2cc(Br)c3ncc(C#N)c(Nc4ccc(F)c(Cl)c4)c3c2)nn1` (stereo not drawn) [Example 703], 0.12 µM corresponded to half-maximal inhibition (IC50).
On the same count and under the same terms, under `CS(=O)(=O)Cn1cc(CNc2cc(Br)c3ncc(C#N)c(Nc4ccc(F)c(Cl)c4)c3c2)nn1` [Example 704] stands 0.033 µM; under `CSCn1cc(CNc2cc(Br)c3ncc(C#N)c(Nc4ccc(F)c(Cl)c4)c3c2)nn1` [Example 705], 0.012 µM; under `N#Cc1cnc2c(Br)cc(NCc3cn(Cc4cccnc4)cn3)cc2c1Nc1ccc(F)c(Cl)c1` [Example 706], 0.0031 µM.
`N#Cc1cnc2c(Br)cc(NCc3cc(C4CCNCC4)n[nH]3)cc2c1Nc1ccc(F)c(Cl)c1` [Example 707] showed an IC50 of 0.8 µM.
Take `CN1CCCC1CCn1cnc(CNc2cc(Br)c3ncc(C#N)c(Nc4ccc(F)c(Cl)c4)c3c2)c1` (stereo not drawn) [Example 708]: the IC50 stood at 0.034 µM.
The same measure, in the same setting: with `CS(=O)(=O)N1CCC(n2cc(CNc3cc(Br)c4ncc(C#N)c(Nc5ccc(F)c(Cl)c5)c4c3)nn2)CC1` [Example 710] the figure was 0.0011 µM.
The same measure, in the same setting: under `N#Cc1cnc2c(Br)cc(NCc3cn(CCCN4CCCCC4)nn3)cc2c1Nc1ccc(F)c(Cl)c1` [Example 711] stands 0.0034 µM; under `N#Cc1cnc2c(Cl)cc(NCc3cn(CCCN4CCCCC4)nn3)cc2c1Nc1ccc(F)c(Cl)c1` [Example 712], 0.0011 µM; under `CC(C)(C)OC(=O)N1CCCC(Cn2cc(CNc3cc(Br)c4ncc(C#N)c(Nc5ccc(F)c(Cl)c5)c4c3)nn2)C1` (stereo not drawn) [Example 713], 0.12 µM.
Same read-out and setting: under `CC(C)(C)OC(=O)N1CCCC(Cn2cc(CNc3cc(Cl)c4ncc(C#N)c(Nc5ccc(F)c(Cl)c5)c4c3)nn2)C1` (stereo not drawn) [Example 714] stands 0.25 µM.

These data come from US20060264460A1 (Wyeth, priority 2005, published 2006).
